Experimental data published in publication PMC4058118, “Impact of Wines and Wine Constituents on Cyclooxygenase-1, Cyclooxygenase-2, and 5-Lipoxygenase Catalytic Activity” (Mediators of Inflammation, 2014).
Where two headings read alike, the source gives them in different places.

What was measured:
[1] = target: T1, COX-1 from ram seminal vesicles (Ovis aries, UniProt P05979); test: COX-1 assay (PGE2 formation, ELISA); assay type: biochemical
T1 construct: COX-1 from ram seminal vesicles; purchased Sigma-Aldrich (Czech Republic); host or cells: ram seminal vesicles (tissue-derived enzyme)
T1 sequence (P05979 25-600): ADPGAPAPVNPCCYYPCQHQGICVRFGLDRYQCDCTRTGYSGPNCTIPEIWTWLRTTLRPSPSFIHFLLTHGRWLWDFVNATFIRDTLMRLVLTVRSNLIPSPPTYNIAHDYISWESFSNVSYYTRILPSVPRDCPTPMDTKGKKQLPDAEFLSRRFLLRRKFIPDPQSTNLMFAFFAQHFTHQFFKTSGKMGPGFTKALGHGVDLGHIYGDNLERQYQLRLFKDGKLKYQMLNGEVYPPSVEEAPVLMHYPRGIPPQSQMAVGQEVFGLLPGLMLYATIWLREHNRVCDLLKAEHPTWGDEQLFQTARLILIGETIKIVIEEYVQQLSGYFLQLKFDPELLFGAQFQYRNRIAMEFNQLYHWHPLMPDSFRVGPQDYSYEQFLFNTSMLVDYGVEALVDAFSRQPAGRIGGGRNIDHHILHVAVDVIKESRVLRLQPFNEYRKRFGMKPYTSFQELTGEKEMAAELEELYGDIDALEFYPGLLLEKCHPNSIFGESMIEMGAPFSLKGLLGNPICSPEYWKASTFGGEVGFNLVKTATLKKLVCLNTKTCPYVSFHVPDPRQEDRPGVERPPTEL

human recombinant COX-2 = target: T2, human recombinant COX-2 (Homo sapiens, UniProt P35354); test: COX-2 assay (PGE2 formation, ELISA); assay type: biochemical; settings: for IC50: read-out: IC50 COX-2 (dash)
T2 construct: purchased Sigma-Aldrich (Czech Republic)
T2 sequence (P35354 18-604): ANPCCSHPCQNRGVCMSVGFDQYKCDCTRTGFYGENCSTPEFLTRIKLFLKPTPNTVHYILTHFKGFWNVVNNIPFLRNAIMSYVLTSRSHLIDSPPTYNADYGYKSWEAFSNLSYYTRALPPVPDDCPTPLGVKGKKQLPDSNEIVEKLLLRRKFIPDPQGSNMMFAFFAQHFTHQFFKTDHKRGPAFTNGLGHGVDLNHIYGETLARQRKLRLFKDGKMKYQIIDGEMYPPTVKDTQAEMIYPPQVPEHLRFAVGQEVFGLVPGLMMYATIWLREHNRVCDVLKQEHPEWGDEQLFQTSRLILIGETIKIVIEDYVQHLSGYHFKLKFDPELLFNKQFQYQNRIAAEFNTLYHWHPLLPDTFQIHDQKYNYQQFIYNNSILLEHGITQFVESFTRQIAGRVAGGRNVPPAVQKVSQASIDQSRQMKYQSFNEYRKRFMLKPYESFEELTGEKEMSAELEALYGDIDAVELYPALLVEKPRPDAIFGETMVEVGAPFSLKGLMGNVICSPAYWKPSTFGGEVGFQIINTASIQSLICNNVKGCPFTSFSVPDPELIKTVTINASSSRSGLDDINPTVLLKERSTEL

5-LOX = target: T3, 5-LOX (Homo sapiens, UniProt P09917); test: 5-LOX assay (LTB4 formation in cells from buffy coat, ELISA); assay type: cell-based
T3 construct: endogenous in cells; host or cells: leukocytes isolated from buffy coat of healthy donors
T3 sequence (P09917 1-674): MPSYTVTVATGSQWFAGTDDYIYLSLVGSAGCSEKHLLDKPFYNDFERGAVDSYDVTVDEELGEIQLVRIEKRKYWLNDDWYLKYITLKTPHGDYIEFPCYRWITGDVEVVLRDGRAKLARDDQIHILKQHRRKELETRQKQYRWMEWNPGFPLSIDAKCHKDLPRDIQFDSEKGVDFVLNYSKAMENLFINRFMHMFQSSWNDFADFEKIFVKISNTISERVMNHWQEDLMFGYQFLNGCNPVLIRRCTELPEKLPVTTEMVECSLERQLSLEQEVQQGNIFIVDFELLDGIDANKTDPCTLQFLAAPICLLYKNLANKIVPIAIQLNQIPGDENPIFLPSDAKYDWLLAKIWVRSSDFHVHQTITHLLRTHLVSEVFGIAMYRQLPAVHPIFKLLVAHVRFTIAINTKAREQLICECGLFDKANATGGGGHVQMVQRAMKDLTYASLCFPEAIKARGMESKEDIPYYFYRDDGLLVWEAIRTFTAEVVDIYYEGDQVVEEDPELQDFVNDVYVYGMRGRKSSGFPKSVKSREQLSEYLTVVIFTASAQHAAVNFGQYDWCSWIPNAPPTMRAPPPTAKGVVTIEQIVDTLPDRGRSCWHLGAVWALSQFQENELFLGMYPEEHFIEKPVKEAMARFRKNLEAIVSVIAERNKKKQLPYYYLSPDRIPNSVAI

COX-1 = settings: cited from earlier work
COX-2 = settings: cited from earlier work
[2] = mean ± SD, read-out: IC50 ± SD COX-1
[3] = dash = IC50 > 50 μM, read-out: IC50 COX-1 (dash)
[4] = mean ± SD, read-out: IC50 ± SD 5-LOX

What does the source list for `Oc1cc(O)c2c(c1)O[C@H](c1ccc(O)c(O)c1)[C@@H](O)C2` [(+)-catechin]?
COX-1 inhibitory activity ([1]; 50 μM concentration): inactive; COX-2 inhibitory activity (human recombinant COX-2; 50 μM concentration): inactive

Which results are given for `O=c1c(O)c(-c2ccc(O)cc2)oc2cc(O)cc(O)c12` [Kaempferol, kaempferol]?
IC50 [1, 2]: 43.8 ± 18.8 µM; IC50 (human recombinant COX-2): > 50 µM; IC50 (5-LOX; read-out: IC50 5-LOX (dash)): > 50 µM

For `O=c1cc(-c2ccc(O)c(O)c2)oc2cc(O)cc(O)c12` [Luteolin, luteolin], which IC50 [1, 3] is on record?
The IC50 was greater than 50 µM.

What about the IC50 (human recombinant COX-2) of the same compound?
The IC50 was greater than 50 µM.

What about the IC50 (5-LOX; [4]) of the same compound?
The IC50 was 2.25 ± 1.75 µM.

For `O=c1c(O)c(-c2cc(O)c(O)c(O)c2)oc2cc(O)cc(O)c12` [Myricetin, myricetin], which IC50 [1, 3] is on record?
The IC50 was greater than 50 µM.

And the IC50 (human recombinant COX-2)?
The IC50 was greater than 50 µM.

And the IC50 (5-LOX)?
The IC50 was 4.02 ± 2.37 µM.

With `Oc1cc(O)cc(/C=C/c2ccc(O)c(O)c2)c1` [Piceatannol, piceatannol] as the compound, how does the IC50 [1] read?
Its IC50 is greater than 50 µM.

And the IC50 (human recombinant COX-2)?
Its IC50 is greater than 50 µM.

And the IC50 (5-LOX; [4])?
The IC50 was 0.76 ± 0.35 µM.

And the IC50 (COX-1; ref 5 (Murias et al.))?
The IC50 was 4.71 µM.

And the “inhibition of COX-1” value (COX-1; ref 38 (Lee et al.))?
The value was “no inhibition”.

What about the IC50 (COX-1; ref 39 (Gerhäuser et al.)) of the same compound?
The IC50 was 81.4 µM.

And the IC50 (COX-2; ref 5 (Murias et al.))?
The IC50 was 0.0113 µM.

And the “inhibition of COX-2” value (COX-2; ref 38 (Lee et al.))?
The value was “no inhibition”.

Which IC50 [1, 2] does the source give for `O=c1c(O)c(-c2ccc(O)c(O)c2)oc2cc(O)cc(O)c12` [Quercetin, quercetin] here?
Its IC50 is 43.8 µM.

What about the IC50 ([1]; read-out: IC50 COX-1 (dash)) of the same compound?
The IC50 was greater than 50 µM.

And the IC50 (human recombinant COX-2)?
The IC50 was greater than 50 µM.

For `Oc1ccc(/C=C/c2cc(O)cc(O)c2)cc1` [Resveratrol, trans-resveratrol], which IC50 [1, 2] is on record?
Its IC50 is 2.27 ± 1.17 µM.

And the IC50 (5-LOX; read-out: IC50 5-LOX (dash))?
Its IC50 is greater than 50 µM.
